# From PubChem BioAssay (NCI)
# Where “and” joins values, the source holds several entries; their conditions need not be identical. Identical values can stand only once.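 Growth conditions: 96-well plates. Treatment: test compound, 48 hours, 5 concentrations. Analysis: linear interpolation between bracketing concentrations; unreached endpoints set to highest concentration. GI50 is the concentration that inhibits growth by half. The concentration for full growth arrest is given as TGI.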
# Columns and labels:
# Experiment in all cases: NCI tumour cell line growth inhibition, 48 h
# [1] = test system: HCT-15 colon
# [2] = test system: MOLT-4 leukemia
# [3] = test system: UACC-62 melanoma
# [4] = test system: HT29 colon
# [5] = test system: MALME-3M melanoma
# [6] = test system: SK-MEL-2 melanoma
# [7] = test system: OVCAR-4 ovarian
# [8] = test system: NCI-H226 lung
# [9] = test system: CAKI-1 renal
# [10] = test system: HOP-92 NSCLC
# [11] = test system: SW-620 colon
# [12] = test system: HOP-62 NSCLC
# [13] = test system: NCI-H460 lung
# [14] = test system: LOX IMVI melanoma
# [15] = test system: LXFL 529 NSCLC
# [16] = test system: SN12C renal
# [17] = test system: ACHN renal
# [18] = test system: U251 CNS
# [19] = test system: KM20L2 colon
# [20] = test system: NCI-H522 lung
# [21] = test system: HL-60(TB) leukemia
# [22] = test system: COLO 205 colon
# [23] = test system: DMS 273 small cell lung
# [24] = test system: OVCAR-5 ovarian
# [25] = test system: OVCAR-8 ovarian
# [26] = test system: UO-31 renal
# [27] = test system: SF-539 CNS
# [28] = test system: SK-OV-3 ovarian
# [29] = test system: RPMI-8226 leukemia
# [30] = test system: DMS 114 small cell lung
# [31] = test system: RXF-631 renal
# [32] = test system: SF-295 CNS
# [33] = test system: K-562 leukemia
# [34] = test system: EKVX NSCLC
# [35] = test system: UACC-257 melanoma
# [36] = test system: A549 NSCLC
# [37] = test system: 786-0 renal
# [38] = test system: KM12 colon
# [39] = test system: M19-MEL melanoma
# [40] = test system: HCC-2998 colon
# [41] = test system: CCRF-CEM leukemia
# [42] = test system: TK-10 renal
# [43] = test system: M14 melanoma
# [44] = test system: RXF 393 renal
# [45] = test system: NCI-H23 lung
# [46] = test system: SNB-19 CNS
# [47] = test system: SNB-75 CNS
# [48] = test system: DLD-1 colon
# [49] = test system: SK-MEL-5 melanoma
# [50] = test system: SNB-78 CNS
# [51] = test system: HCT-116 colon
# [52] = test system: SF-268 CNS
# [53] = test system: HOP-18 NSCLC
# [54] = test system: XF 498 CNS
# [55] = test system: SK-MEL-28 melanoma
# [56] = test system: OVCAR-3 ovarian
# [57] = test system: A498 renal
# [58] = test system: NCI/ADR-RES ovarian
# [59] = test system: BT-549 breast
# [60] = test system: MDA-MB-231 breast
# [61] = test system: MCF7 breast
# [62] = test system: SN12K1 renal
# [63] = test system: T-47D breast
# [64] = test system: DU-145 prostate
# [65] = test system: HS 578T breast
# [66] = test system: P388/ADR leukemia
# [67] = test system: PC-3 prostate
# [68] = test system: IGROV1 ovarian
# [69] = test system: P388 leukemia
structure (smiles),measurement,setting,value
COc1cc(/C=C2\Cc3ccccc3C2=O)cc(OC)c1OC,TGI,[1],> 100000 nM
same,TGI,[2],> 100000 nM
same,TGI,[3],> 100000 nM
same,TGI,[4],> 100000 nM
same,TGI,[5],> 100000 nM
same,TGI,[6],> 100000 nM
same,TGI,[7],> 100000 nM
same,TGI,[8],> 100000 nM
same,TGI,[9],> 100000 nM
same,TGI,[10],> 100000 nM
same,TGI,[11],> 100000 nM
same,TGI,[12],> 100000 nM
same,TGI,[13],> 100000 nM
same,TGI,[14],> 100000 nM
same,TGI,[15],> 100000 nM
same,TGI,[16],> 100000 nM
same,TGI,[17],> 100000 nM
same,TGI,[18],> 100000 nM
same,TGI,[19],> 100000 nM
same,TGI,[20],> 100000 nM
same,TGI,[21],> 100000 nM
same,TGI,[22],> 100000 nM
same,TGI,[23],> 100000 nM
same,TGI,[24],> 100000 nM
same,TGI,[25],> 100000 nM
same,TGI,[26],> 100000 nM
same,TGI,[27],> 100000 nM
same,TGI,[28],> 100000 nM
same,TGI,[29],> 100000 nM
same,TGI,[30],> 100000 nM
same,TGI,[31],> 100000 nM
same,TGI,[32],> 100000 nM
same,TGI,[33],> 100000 nM
same,TGI,[34],> 100000 nM
same,TGI,[35],> 100000 nM
same,TGI,[36],> 100000 nM
same,TGI,[37],> 100000 nM
same,TGI,[38],> 100000 nM
same,TGI,[39],> 100000 nM
same,TGI,[40],> 100000 nM
same,TGI,[41],> 100000 nM
same,TGI,[42],> 100000 nM
same,TGI,[43],> 100000 nM
same,TGI,[44],> 100000 nM
same,TGI,[45],> 100000 nM
same,TGI,[46],> 100000 nM
same,TGI,[47],> 100000 nM
same,TGI,[48],> 100000 nM
same,TGI,[49],> 100000 nM
same,TGI,[50],> 100000 nM
same,TGI,[51],> 100000 nM
same,TGI,[52],> 100000 nM
same,TGI,[53],> 100000 nM
same,TGI,[54],> 100000 nM
same,TGI,[55],> 100000 nM
same,TGI,[56],> 100000 nM
CSC1SCC2C(=O)N(C)C(C(C)C)C(=O)OCC(NC(=O)c3cnc4ccccc4n3)C(=O)NC(C)C(=O)N(C)C1C(=O)N(C)C(C(C)C)C(=O)OCC(NC(=O)c1cnc3ccccc3n1)C(=O)NC(C)C(=O)N2C (stereo not drawn),GI50,[1],3.22 nM
same,GI50,[2],< 1 nM
same,GI50,[57],< 1 nM
same,GI50,[3],< 1 nM
same,GI50,[4],< 1 nM
same,GI50,[5],< 1 nM
same,TGI,[6],1.26 nM
same,GI50,[58],23.8 nM
same,TGI,[58],222 nM and 1160 nM and 1410 nM
same,GI50,[7],< 1 nM
same,GI50,[8],3.25 nM
same,GI50,[9],< 1 nM
same,GI50,[10],< 1 nM
same,GI50,[11],< 1 nM
same,GI50,[12],< 1 nM
same,GI50,[59],< 1 nM
same,TGI,[59],15.8 nM
same,GI50,[13],< 1 nM
same,GI50,[14],< 1 nM
same,GI50,[16],< 1 nM
same,GI50,[17],< 1 nM and 1.86 nM and 7.5 nM
same,TGI,[60],1.92 nM and 9.85 nM and 14.2 nM
same,GI50,[18],< 1 nM
same,GI50,[61],< 1 nM
same,GI50,[19],0.00529 nM
same,GI50,[20],< 1 nM
same,GI50,[21],< 1 nM
same,GI50,[22],< 1 nM
same,GI50,[23],0.04 nM
same,GI50,[24],< 1 nM
same,GI50,[62],0.567 nM
same,TGI,[62],24.8 nM and 80.1 nM
same,GI50,[25],< 1 nM
same,GI50,[26],3.28 nM
same,GI50,[27],< 1 nM
same,GI50,[28],1.74 nM
same,GI50,[29],< 1 nM
same,GI50,[63],< 1 nM
same,GI50,[30],0.00345 nM
same,TGI,[30],0.00838 nM
same,GI50,[32],< 1 nM
same,GI50,[33],< 1 nM
same,GI50,[34],< 1 nM
same,GI50,[35],< 1 nM
same,GI50,[36],< 1 nM
same,GI50,[37],< 1 nM
same,GI50,[38],< 1 nM
same,GI50,[40],< 1 nM
same,GI50,[64],< 1 nM
same,GI50,[41],< 1 nM
same,GI50,[42],< 1 nM and 7.5 nM
same,GI50,[43],< 1 nM
same,TGI,[43],1.21 nM and 3.46 nM
same,GI50,[65],< 1 nM
same,TGI,[65],2.82 nM and 3.59 nM
same,GI50,[44],< 1 nM
same,GI50,[66],7.5 nM
same,TGI,[66],49 nM and 34.8 nM
same,GI50,[45],< 1 nM
same,GI50,[46],< 1 nM
same,GI50,[48],0.0184 nM
same,TGI,[48],1080 nM and 5930 nM
same,TGI,[67],13.2 nM and 22.4 nM
same,GI50,[68],< 1 nM
same,GI50,[50],0.000896 nM
same,GI50,[52],< 1 nM
same,GI50,[53],0.00966 nM
same,GI50,[54],0.0306 nM
same,TGI,[54],0.0567 nM
same,GI50,[69],0.00499 nM
same,GI50,[55],< 1 nM
same,GI50,[56],< 1 nM
